Data as given in patent US5288709A, “Erythromycin derivatives” (priority 1991, dated 1994).
≈ marks a conversion by molar mass, not a printed value. Read-outs that look alike come from different tables or passages of the source.

Assays:
Test in all cases: In-vitro antimicrobial activity primary screen (agar dilution MIC)
Format in all cases: cell-based
[1] = system: Staphylococcus aureus CMX 686B; conditions: CMX686B, BHI agar, 20-24 h, read-out: MIC
Procedure: (§1) The antimicrobial spectra of several of the compounds of the present invention were tested as described below.
(§2) Twelve petri dishes containing successive aqueous dilutions of the test compounds, mixed with 10 mL of sterilized Brain Heart Infusion (BHI) agar (Difco 0418-01-5), were prepared. Each plate was inoculated with 1:100 (or 1:10 for slow growing strains (primarily Micrococcus and Streptococcus) dilutions of up to 32 different microorganisms, using a Steers replicator block. The inoculated plates were incubated at 35 37° C. for 20-24 hours. In addition, a control plate, using BHI agar containing no test compound, was prepared and incubated at the beginning and the end of each test.
(§3) An additional plate containing a compound having known susceptibility patterns for the organisms being tested and belonging to the same antibiotic class as the test compounds was also prepared and incubated as a further control, as well as to provide test-to test comparability. Erythromycin A was used for this purpose.
(§4) After incubation, each plate was read. The MIC (minimum inhibitory concentration) is defined as the lowest concentration of test compound yielding no growth, a slight haze, or sparsely isolated colonies on the inoculum spot as compared to the growth control containing no test compound.

[2] = system: Staphylococcus aureus CMX 553; conditions: Staphylococcus aureus, CMX553, 24 h, BHI agar, 20-24 h, read-out: MIC
Procedure: as §1, §2, §3, §4

[3] = system: Staphylococcus aureus CMX 503A; conditions: Staphylococcus aureus, CMX503A, 24 h, BHI agar, 20-24 h, read-out: MIC
Procedure: as §1, §2, §3, §4

[4] = system: Pseudomonas aeruginosa K799/WT
Procedure: as §1, §2
(§5) An additional plate containing a compound having known susceptibility patterns for the organisms being tested and belonging to the same antibiotic class as the test compounds was also prepared and incubated as a further control, as well as to provide test-to test comparability.
as §4

[5] = system: Staphylococcus aureus ATCC 6538P; conditions: Staphylococcus aureus, ATCC6538P, 24 h, BHI agar, 20-24 h
Procedure: as §1, §2, §5, §4

Escherichia coli DC-2 = system: Escherichia coli DC-2
Procedure: as §1, §2, §5, §4

[6] = system: Enterobacter aerogenes ATCC 13048; conditions: Klebsiella aerogenes
Procedure: as §1, §2, §5, §4

[7] = system: Staphylococcus aureus A5177; conditions: Staphylococcus aureus A5177, BHI agar, 20-24 h
Procedure: as §1, §2, §5, §4

[8] = system: Pseudomonas aeruginosa K799/61; conditions: Pseudomonas aeruginosa K799/61, BHI agar, 20-24 h
Procedure: as §1, §2, §5, §4

[9] = system: Pseudomonas aeruginosa BMH10; conditions: BHI agar, 20-24 h
Procedure: as §1, §2, §5, §4

[10] = system: Providencia stuartii CMX 640
Procedure: as §1, §2, §5, §4

[11] = system: Klebsiella pneumoniae ATCC 8045
Procedure: as §1, §2, §5, §4

Pseudomonas cepacia 2961 = conditions: BHI agar, 20-24 h
Procedure: as §1, §2, §5, §4

Staphylococcus aureus 45 = conditions: BHI agar, 20-24 h, read-out: MIC
Procedure: as §1, §2, §5, §4

[12] = system: Staphylococcus aureus 45 RAR2; conditions: Staphylococcus aureus, 45RAR2, 24 h, BHI agar, 20-24 h
Procedure: as §1, §2, §5, §4

[13] = system: Streptococcus agalactiae CMX 508; conditions: Streptococcus agalactiae, CMX508, 24 h, BHI agar, 20-24 h
Procedure: as §1, §2, §5, §4

[14] = system: Enterococcus faecium ATCC 8043; conditions: Enterococcus faecium, ATCC8043, 24 h
Procedure: as §1, §2, §5, §4

[15] = system: Streptococcus pyrogenes 2548 INDUC; conditions: BHI agar, 20-24 h, read-out: MIC
Procedure: as §1, §2, §5, §4

[16] = system: Staphylococcus epidermidis 3519; conditions: Staphylococcus epidermidis, 3519, 24 h, BHI agar, 20-24 h
Procedure: as §1, §2, §5, §4

[17] = system: Streptococcus pyrogenes EES61; conditions: BHI agar, 20-24 h, read-out: MIC
Procedure: as §1, §2, §5, §4

[18] = system: Streptococcus bovis A5169; conditions: Streptococcus equinus, BHI agar, 20-24 h, read-out: MIC
Procedure: as §1, §2, §5, §4

[19] = system: Micrococcus luteus ATCC 9341; conditions: 20-24 h
Procedure: as §1, §2, §5, §4

[20] = system: Micrococcus luteus ATCC 4698; conditions: Micrococcus luteus, ATCC4698, 24 h, BHI agar, 20-24 h
Procedure: as §1, §2, §5, §4

Escherichia coli SS = conditions: BHI agar, 20-24 h, read-out: MIC
Procedure: as §1, §2, §5, §4

[21] = system: Pseudomonas aeruginosa A5007
Procedure: as §1, §2, §5, §4

Escherichia coli JUHL = system: Escherichia coli JUHL
Procedure: as §1, §2, §5, §4

Escherichia coli H560 = conditions: Escherichia coli, H560, 24 h, Escherichia coli H560; BHI agar, 20-24 h
Procedure: as §1, §2, §5, §4

Acinetobacter SP CMX 669 = conditions: Acinetobacter, SPCMX669, 24 h
Procedure: as §1, §2, §5, §4

Compound	MIC [1] [µg/mL]	MIC [2] [µg/mL]	MIC [3] [µg/mL]	MIC [5] [µg/mL]	MIC (Staphylococcus aureus 45) [µg/mL]	MIC [12] [µg/mL]	MIC [13] [µg/mL]	MIC [14] [µg/mL]	MIC [15] [µg/mL]	MIC [16] [µg/mL]	MIC [17] [µg/mL]	MIC [18] [µg/mL]	MIC [20] [µg/mL]	MIC (Escherichia coli SS) [µg/mL]	also measured
CC[C@H]1OC(=O)[C@H](C)[C@@H](O[C@H]2C[C@@](C)(OC)[C@H](NC(=O)OCc3ccccc3)[C@H](C)O2)[C@H](C)[C@@H](O[C@@H]2O[C@H](C)C[C@H](N(C)C)[C@H]2O)[C@](C)(O)C[C@@H](C)[C@@H]2O[C@@]1(C)C(=O)[C@H]2C [Example 7, (4"R,9S)-9-Deoxo-4",11,12-trideoxy-9,12-epoxy-11-oxo-4"-[[(phenylmethoxy)carbonyl]amino]erythromycin A]	0.2 (≈ 0.236 µM)	0.2 (≈ 0.236 µM)	0.2 (≈ 0.236 µM)	0.2 (≈ 0.236 µM)	0.2 (≈ 0.236 µM)	0.39 (≈ 0.459 µM)	0.05 (≈ 0.0589 µM)	0.1 (≈ 0.118 µM)	0.39 (≈ 0.459 µM)	0.39 (≈ 0.459 µM)	0.1 (≈ 0.118 µM)	0.1 (≈ 0.118 µM)	0.2 (≈ 0.236 µM)	1.56 (≈ 1.84 µM)	MIC ([4]; Pseudomonas aeruginosa K799/WT, BHI agar, 20-24 h, read-out: MIC): 100 µg/mL (≈ 118 µM); MIC (Escherichia coli DC-2; DC2, Escherichia coli DC-2, BHI agar, 20-24 h, read-out: MIC): 100 µg/mL (≈ 118 µM); MIC ([6]; ATCC13048, Enterobacter aerogenes ATCC 13048, BHI agar, 20-24 h, read-out: MIC): 100 µg/mL (≈ 118 µM); MIC ([7]; read-out: MIC): 0.39 µg/mL (≈ 0.459 µM); MIC ([8]; read-out: MIC): 0.78 µg/mL (≈ 0.919 µM); MIC ([9]; read-out: MIC): 100 µg/mL (≈ 118 µM); MIC ([10]; CMX640, Providencia stuartii CMX 640, BHI agar, 20-24 h, read-out: MIC): > 100 µg/mL; MIC ([11]; ATCC8045, Klebsiella pneumoniae ATCC 8045, BHI agar, 20-24 h, read-out: MIC): 100 µg/mL (≈ 118 µM); MIC (Pseudomonas cepacia 2961; Burkholderia cepacia, read-out: MIC): > 100 µg/mL; MIC ([19]; ATCC9341, BHI agar, read-out: MIC): 0.05 µg/mL (≈ 0.0589 µM); MIC ([21]; Pseudomonas aeruginosa A5007, BHI agar, 20-24 h, read-out: MIC): > 100 µg/mL; MIC (Escherichia coli JUHL; Escherichia coli JUHL, BHI agar, 20-24 h, read-out: MIC): > 100 µg/mL
CC[C@H]1OC(=O)[C@H](C)[C@@H](O[C@H]2C[C@@](C)(OC)[C@H](N=CN(C)C)[C@H](C)O2)[C@H](C)[C@@H](O[C@@H]2O[C@H](C)C[C@H](N(C)C)[C@H]2O)[C@](C)(O)C[C@@H](C)[C@@H]2O[C@@]1(C)C(=O)[C@H]2C [Example 9, (4"R,9S)-9-Deoxo-4",11,12-trideoxy-9,12-epoxy-4"-[[(dimethyamino)methylene]amino]-11-oxoerythromycin A]	0.39 (≈ 0.506 µM)	0.39 (≈ 0.506 µM)	0.39 (≈ 0.506 µM)	0.39 (≈ 0.506 µM)	0.39 (≈ 0.506 µM)	0.78 (≈ 1.01 µM)	0.01 (≈ 0.013 µM)	0.1 (≈ 0.13 µM)	6.2 (≈ 8.05 µM)	0.39 (≈ 0.506 µM)	< 0.005	< 0.005	0.2 (≈ 0.26 µM)	0.78 (≈ 1.01 µM)	MIC ([4]; Pseudomonas aeruginosa, K799/WT, 24 h): 100 µg/mL (≈ 130 µM); MIC (Escherichia coli DC-2; Escherichia coli, DC2, 24 h): > 100 µg/mL; MIC (Escherichia coli H560): 50 µg/mL (≈ 64.9 µM); MIC ([6]; ATCC13048, 24 h): > 100 µg/mL; MIC ([7]; Staphylococcus aureus, A5177, 24 h): 0.78 µg/mL (≈ 1.01 µM); MIC ([8]; Pseudomonas aeruginosa, K799/61, 24 h): 3.1 µg/mL (≈ 4.03 µM); MIC ([9]; Pseudomonas aeruginosa, BMH10, 24 h): > 100 µg/mL; MIC ([10]; Providencia stuartii, CMX640, 24 h): > 100 µg/mL; MIC ([11]; Klebsiella pneumoniae, ATCC8045, 24 h): > 100 µg/mL; MIC (Pseudomonas cepacia 2961; Burkholderia cepacia, 2961, 24 h): > 100 µg/mL; MIC (Acinetobacter SP CMX 669): 50 µg/mL (≈ 64.9 µM); MIC ([19]; Micrococcus luteus, ATCC9341, 24 h, BHI agar): 0.02 µg/mL (≈ 0.026 µM); MIC ([21]; Pseudomonas aeruginosa, A5007, 24 h): > 100 µg/mL; MIC (Escherichia coli JUHL; Escherichia coli, 24 h): > 100 µg/mL
